US20100152154A1, “NOVEL PLATINUM COMPOUNDS FOR TREATING CANCER” (priority 2008, published 2010)

How the values were obtained:
Type in all cases: cell-based, human
HepG2 cells = test: In vitro IC50 by MTS assay, HepG2 liver cancer cells; conditions: HepG2, 48 hr incubation, MTS assay (490 nm)
Experimental: (§1) To Determine the In Vitro IC50 Values on Ten Human Cancer Cell Lines
(§2) HepG2 and PLC/PRF/5 cells are cultured in DMEM medium. Hep3B cells are cultured in MEM medium. NCI-H460 and 786-0 cells are cultured in RPMI 1640 medium. Caki-1, HCT-116, and SK-OV-3 cells are cultured in McCoy's 5A medium. MDA-MB-231 cells are cultured in L15 medium. All cells are cultured in corresponding media supplemented with 10% FBS, at 37° C., 5% CO2, and 95% humidity. All media are purchased from GIBCO.
(§3) CellTiter 96® Aqueous MTS reagent powder (Cat. No. G1112, Promega) Phenazine methosulfate (PMS) (Cat. No. P9625, Sigma)
(§4) Cells are harvested during the logarithmic growth period and counted with hemocytometer. Add 90 μl cell suspensions to 96-well plates (triplicates for each cell concentration), the final cell densities are 2×10^4, 1×10^4, or 5×10^3 cells/well. Prepare a series of drug concentrations for each of JP0916 and cisplatin and dispense 10 μl drug solution in each well (triplicate for each drug concentration). Incubate the plate for 48 hr then measure by MTS assay (490 nm).

Hep3B cells = test: In vitro IC50 by MTS assay, Hep3B liver cancer cells; conditions: 48 hr incubation, MTS assay (490 nm)
Experimental: as §1, §2, §3, §4

PC/PRF/5 cells = test: In vitro IC50 by MTS assay, PC/PRF/5 liver cancer cells; conditions: PC/PRF/5, 48 hr incubation, MTS assay (490 nm)
Experimental: as §1, §2, §3, §4

786-0 cells = test: In vitro IC50 by MTS assay, 786-0 kidney cancer cells; conditions: 786-0, 48 hr incubation, MTS assay (490 nm)
Experimental: as §1, §2, §3, §4

Caki-1 cells = test: In vitro IC50 by MTS assay, Caki-1 kidney cancer cells; conditions: Caki-1, 48 hr incubation, MTS assay (490 nm)
Experimental: as §1, §2, §3, §4

MDA-MB-231 cells = test: In vitro IC50 by MTS assay, MDA-MB-231 breast cancer cells; conditions: MDA-MB-231, 48 hr incubation, MTS assay (490 nm)
Experimental: as §1, §2, §3, §4

HCT-116 cells = test: In vitro IC50 by MTS assay, HCT-116 colon cancer cells; conditions: HCT-116, 48 hr incubation, MTS assay (490 nm)
Experimental: as §1, §2, §3, §4

NCI-H460 cells = test: In vitro IC50 by MTS assay, NCI-H460 NSCLC cells; conditions: NCI-H460, 48 hr incubation, MTS assay (490 nm)
Experimental: as §1, §2, §3, §4

SK-OV-3 cells = test: In vitro IC50 by MTS assay, SK-OV-3 ovarian cancer cells; conditions: SK-OV-3, 48 hr incubation, MTS assay (490 nm)
Experimental: as §1, §2, §3, §4

“cis-diamminedichloroplatinum(II) [Cisplatin]” was tested, and the IC50 (HepG2 cells) was 25.6 µM, the IC50 (Hep3B cells) was 3.08 µM and the IC50 (PC/PRF/5 cells) was 21.8 µM. For the same substance, the IC50 (786-0 cells) was 3.54 µM, the IC50 (Caki-1 cells) was 10.5 µM and the IC50 (MDA-MB-231 cells) was 53.2 µM. The IC50 (HCT-116 cells) was 10.6 µM, the IC50 (NCI-H460 cells) was 8.56 µM and the IC50 (SK-OV-3 cells) was 21.6 µM.
